Numbers after ± are expanded uncertainties.
Conditions: Liquid, Ebulliometric method (Recirculating still)

Which “vapor or sublimation pressure” value (355.2 K) does the source give for `CC(C)(C)O` [2-methylpropan-2-ol] here?
Its value is 100 ± 2 kPa.

Which “vapor or sublimation pressure” value (372.8 K) does the source give for `O` [water] here?
The value was 100 ± 2 kPa.

— the NIST ThermoML archive (doi:10.1016/j.jct.2019.07.008)
